Reference: the supplement of paper PMC10307832

Legend:
Test in all cases: relative viability (nuclei count vs DMSO), 5 days (fraction); higher = more cells survive
[1] = compound: Cc1ccc(C(=O)N(CCCN)[C@@H](c2nc3cc(Cl)ccc3c(=O)n2Cc2ccccc2)C(C)C)cc1 [Ispinesib] + CS(=O)(=O)N1CCN(Cc2cc3nc(-c4cccc5[nH]ncc45)nc(N4CCOCC4)c3s2)CC1 [Pictilisib] (partner 1 µM)
Outline: (§1)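 Relative viability is defined as nuclei in treated wells over nuclei in vehicle wells. Duplicate plates were run and medians reported. Lung cancer cell lines in 1536-well plates were dosed by pin tool one day after seeding, with one drug or with a fixed anchor-drug dose plus five library-drug doses (not always all listed) in √10 steps, and nuclei were counted after 5 days.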

[2] = compound: C[C@]1(O)C[C@@H](c2nc(-c3ccc4ccc(-c5ccccc5)nc4c3)c3c(N)nccn32)C1 [Linsitinib] + CS(=O)(=O)N1CCN(Cc2cc3nc(-c4cccc5[nH]ncc45)nc(N4CCOCC4)c3s2)CC1 [Pictilisib] (partner 1 µM)
Outline: as §1

[3] = compound: C[C@]1(O)C[C@@H](c2nc(-c3ccc4ccc(-c5ccccc5)nc4c3)c3c(N)nccn32)C1 [Linsitinib] + COc1cccc2cc(-c3nc([C@H]4CC[C@H](C(=O)O)CC4)n4ncnc(N)c34)[nH]c12 [OSI-027] (partner 0.5 µM)
Outline: as §1

[4] = compound: Cc1ccc(C(=O)N(CCCN)[C@@H](c2nc3cc(Cl)ccc3c(=O)n2Cc2ccccc2)C(C)C)cc1 [Ispinesib] + Nc1ncn([C@H]2C[C@H](O)[C@@H](CO)O2)c(=O)n1 [Decitabine] (partner 2 µM)
Outline: as §1

Row | Cell Line | relative viability ([1]; first compound 0.001 µM) | relative viability ([1]; first compound 0.003162 µM) | relative viability ([1]; first compound 0.01 µM) | relative viability ([1]; first compound 0.03162 µM) | relative viability ([1]; first compound 0.1 µM) | relative viability ([2]; first compound 0.01 µM) | relative viability ([2]; first compound 0.03162 µM) | relative viability ([2]; first compound 0.1 µM) | relative viability ([2]; first compound 0.3162 µM) | relative viability ([2]; first compound 1 µM) | relative viability ([3]; first compound 0.01 µM) | relative viability ([3]; first compound 0.03162 µM) | relative viability ([3]; first compound 0.1 µM) | relative viability ([3]; first compound 0.3162 µM) | relative viability ([3]; first compound 1 µM) | relative viability ([4]; first compound 0.001 µM) | relative viability ([4]; first compound 0.003162 µM) | relative viability ([4]; first compound 0.01 µM) | relative viability ([4]; first compound 0.03162 µM) | relative viability ([4]; first compound 0.1 µM)
1 | NCI-H322M | 0.527 | 0.489 | 0.54 | 0.44 | 0.397 | 0.496 | 0.502 | 0.506 | 0.503 | 0.433 | 0.547 | 0.47 | 0.531 | 0.361 | 0.384 | 0.744 | 0.771 | 0.697 | 0.666 | 0.559
2 | HARA | 0.445 | 0.43 | 0.392 | 0.467 | 0.179 | 0.399 | 0.373 | 0.248 | 0.369 | 0.166 | 0.505 | 0.502 | 0.637 |  | 0.232 | 0.514 | 0.467 | 0.573 | 0.709 | 0.314
3 | NCI-H2023 | 0.271 | 0.237 | 0.273 | 0.0793 | 0.125 | 0.233 | 0.18 | 0.172 | 0.0774 | 0.147 | 0.425 | 0.215 | 0.358 | 0.212 | 0.12 | 0.226 | 0.233 | 0.247 | 0.129 | 0.103
4 | NCI-H1437 | 0.46 | 0.48 | 0.477 | 0.393 | 0.207 | 0.449 | 0.53 | 0.455 | 0.467 | 0.57 | 0.874 | 0.885 | 1.02 | 0.853 | 0.893 | 0.552 | 0.605 | 0.677 | 0.652 | 0.228
5 | BEN | 0.581 | 0.675 | 0.542 | 0.421 | 0.222 | 0.526 | 0.576 | 0.64 | 0.425 | 0.606 | 0.346 | 0.27 | 0.258 |  | 0.249 | 0.714 | 0.737 | 0.785 | 0.421 | 0.375
6 | LXF-289 | 0.846 | 0.812 | 0.909 | 0.709 | 0.123 | 0.76 | 0.875 | 0.738 | 0.539 | 0.592 | 0.769 | 0.757 | 0.795 |  | 0.515 | 0.359 | 0.388 | 0.387 | 0.404 | 0.349
7 | NCI-H358 | 0.298 | 0.359 | 0.377 | 0.227 | 0.245 | 0.317 | 0.232 | 0.333 | 0.261 | 0.281 | 0.781 | 0.928 | 0.68 | 0.421 | 0.246 | 0.187 | 0.205 | 0.213 | 0.109 | 0.139
8 | NCI-H1993 | 0.808 | 0.828 | 0.806 | 0.7 | 0.611 | 0.831 | 0.832 | 0.843 | 0.643 | 0.896 | 0.502 | 0.534 | 0.525 | 0.407 | 0.679 | 0.679 | 0.667 | 0.555 | 0.678 | 0.479
9 | NCI-H727 |  | 0.461 | 0.313 | 0.232 | 0.239 | 0.414 | 0.353 | 0.342 | 0.281 | 0.17 | 0.609 | 0.597 | 0.608 | 0.347 | 0.358 | 0.651 | 0.864 |  | 0.737 | 0.761
10 | LOU-NH91 | 0.482 | 0.54 | 0.508 | 0.427 | 0.256 | 0.49 | 0.515 | 0.503 | 0.523 | 0.457 | 0.714 | 0.704 | 0.7 | 0.712 | 0.527 | 0.795 | 0.852 | 0.858 | 0.786 | 0.342
11 | NCI-H1975 | 0.295 | 0.276 | 0.272 | 0.153 | 0.164 | 0.286 | 0.253 | 0.246 | 0.255 | 0.178 | 0.68 | 0.738 | 0.722 | 0.544 | 0.347 | 0.382 | 0.436 | 0.37 | 0.288 | 0.221
12 | PC-3 [JPC-3] | 0.751 | 0.812 | 0.876 | 0.628 | 0.53 | 0.804 | 0.777 | 0.665 | 0.517 | 0.52 | 0.709 | 0.79 | 0.664 | 0.651 | 0.463 | 0.838 | 0.867 | 0.781 | 0.796 | 0.465
13 | NCI-H2126 | 0.505 | 0.56 | 0.563 | 0.476 | 0.39 | 0.489 | 0.486 | 0.459 | 0.389 | 0.359 | 0.671 | 0.909 | 0.596 | 0.478 | 0.358 | 0.541 | 0.536 | 0.57 | 0.551 | 0.559
14 | LU99A | 0.358 | 0.286 | 0.287 | 0.223 | 0.161 | 0.291 | 0.347 | 0.315 | 0.204 | 0.242 | 0.32 | 0.314 | 0.299 | 0.245 | 0.24 | 0.868 | 1.1 | 1.02 | 0.674 | 0.727
15 | NCI-H23 | 0.441 | 0.479 | 0.557 | 0.251 | 0.189 | 0.445 | 0.412 | 0.521 | 0.184 | 0.395 | 0.722 | 0.64 | 0.606 | 0.206 | 0.251 | 0.27 | 0.326 | 0.304 | 0.309 | 0.213
